Experimental data from ChEMBL document CHEMBL1150463, “Identification of simpler analogs of neurotensin(913) which retain antinociceptive activity” (Bioorg Med Chem Lett, 1993).
Where a SMILES comes first, the peptide text is derived from it. [ ]: non-standard residue; d: D form. The star is where a group is joined. Orn = NCCC[C@H](N)C(=O)O; Nva = CCC[C@H](N)C(=O)O; Ahx = NCCCCCC(=O)O; X1 = CC(C)CCO*

Columns and labels:
Mus musculus = assay: Antinociceptive activity using the mouse phenylquinone writhing assay with i.c.v. administration; assay type: functional
[1] = In vitro affinity for the neurotensin receptor on mouse brain membranes.; assay type: tissue-based

Question: For NC(N)=NCCC[C@H](N)C(=O)N1CCC[C@H]1C(=O)N[C@@H](Cc1ccc(O)cc1)C(=O)O (H-Arg-Pro-Tyr-OH), which ED50 (Mus musculus) is on record?
Answer: The ED50 was 55 ug mouse-1.

Question: And the Ki [1]?
Answer: The Ki was over 10000 nM.

Question: Which ED50 (Mus musculus) does the source give for NC(N)=NCCC[C@H](NC(=O)[C@@H](N)CCCN=C(N)N)C(=O)O (H-Arg-Arg-OH) here?
Answer: Its ED50 is over 50 ug mouse-1.

Question: What about the Ki [1] of the same compound?
Answer: The Ki was over 100000 nM.

Question: Which ED50 (Mus musculus) does the source give for H-APYIL-OH here?
Answer: The ED50 was under 50 ug mouse-1.

Question: And the Ki [1]?
Answer: The Ki was 5900 nM.

Question: What does the source list for O=C(O)[C@H](Cc1ccc(O)cc1)NC(=O)[C@@H]1CCCN1 (H-Pro-Tyr-OH)?
Answer: ED50 (Mus musculus): >50 ug mouse-1; Ki [1]: 13000 nM

Question: For CC[C@H](C)[C@H](NC(=O)[C@H](Cc1ccc(O)cc1)NC(=O)[C@@H]1CCCN1C(=O)[C@H](CCCNC(=N)N)NC(=O)[C@@H](N)CCCNC(=N)N)C(=O)N[C@@H](CC(C)C)C(=O)O, which ED50 (Mus musculus) is on record?
Answer: The ED50 was 0.092 ug mouse-1.

Question: With CC[C@H](C)[C@H](NC(=O)[C@H](Cc1ccc(O)cc1)NC(=O)[C@@H]1CCCN1C(=O)[C@@H](N)CCCN=C(N)N)C(=O)N[C@@H](CC(C)C)C(=O)O as the compound, how does the ED50 (Mus musculus) read?
Answer: Its ED50 is 0.0201 ug mouse-1.

Question: What about the Ki [1] of the same compound?
Answer: The Ki was 73 nM.

Question: Which Ki [1] does the source give for CC[C@H](C)[C@H](NC(=O)[C@H](Cc1ccc(O)cc1)NC(=O)[C@@H]1CCCN1C(=O)[C@@H](N)CCCCN)C(=O)OCCC(C)C (H-KPYI-X1) here?
Answer: The Ki was over 10000 nM.

Question: For CC[C@H](C)[C@H](NC(=O)[C@H](Cc1ccc(O)cc1)NC(=O)[C@@H]1CCCN1C(=O)[C@@H](N)CCCN)C(=O)N[C@@H](CC(C)C)C(=O)O (H-[Orn]PYIL-OH), which ED50 (Mus musculus) is on record?
Answer: The ED50 was 20 ug mouse-1.

Question: And the Ki [1]?
Answer: Its Ki is 520 nM.

Question: Which ED50 (Mus musculus) does the source give for CC[C@H](C)[C@H](NC(=O)[C@H](Cc1ccc(O)cc1)NC(=O)[C@@H]1CCCN1C(=O)CCCCCN)C(=O)N[C@@H](CC(C)C)C(=O)O (H-[Ahx]PYIL-OH) here?
Answer: Its ED50 is 1.3 ug mouse-1.

Question: And the Ki [1]?
Answer: Its Ki is 1300 nM.

Question: For CC[C@@H](C)[C@H](NC(=O)[C@H](Cc1ccc(O)cc1)NC(=O)[C@@H]1CCCN1C(=O)[C@H](CCCNC(=N)N)NC(=O)[C@@H](N)CCCNC(=N)N)C(=O)N[C@@H](CC(C)C)C(=O)O, which Ki [1] is on record?
Answer: Its Ki is 4 nM.

Question: For H-KPYIL-OH, which ED50 (Mus musculus) is on record?
Answer: The ED50 was 8 ug mouse-1.

Question: What about the Ki [1] of the same compound?
Answer: Its Ki is 690 nM.

Question: With NC(N)=NCCC[C@H](NC(=O)[C@@H](N)CCCN=C(N)N)C(=O)N1CCC[C@H]1C(=O)O (H-Arg-Arg-Pro-OH) as the compound, how does the ED50 (Mus musculus) read?
Answer: The ED50 was “>=500 ug mouse-1”.

Question: What does the source list for H-KPYIA-OH?
Answer: ED50 (Mus musculus): >50 ug mouse-1; Ki [1]: > 10000 nM

Question: Which ED50 (Mus musculus) does the source give for CC[C@H](C)[C@H](NC(=O)[C@H](Cc1ccc(O)cc1)NC(=O)[C@@H]1CCCN1C(=O)[C@@H](N)CCCN=C(N)N)C(=O)O (H-RPYI-OH) here?
Answer: The ED50 was “>=50 ug mouse-1”.

Question: What about the Ki [1] of the same compound?
Answer: Its Ki is over 1000 nM.

Question: Which results are given for CCC[C@H](N)C(=O)N1CCC[C@H]1C(=O)N[C@@H](Cc1ccc(O)cc1)C(=O)N[C@H](C(=O)N[C@@H](CC(C)C)C(=O)O)[C@@H](C)CC (H-[Nva]PYIL-OH)?
Answer: ED50 (Mus musculus): >50 ug mouse-1; Ki [1]: 3000 nM

Question: For CC[C@H](C)[C@H](NC(=O)[C@@H](N)Cc1ccc(O)cc1)C(=O)O (H-Tyr-Ile-OH), which ED50 (Mus musculus) is on record?
Answer: The ED50 was over 50 ug mouse-1.

Question: What about the Ki [1] of the same compound?
Answer: Its Ki is over 1000 nM.

Question: For CC[C@@H](C)[C@H](NC(=O)[C@H](Cc1ccc(O)cc1)NC(=O)[C@@H]1CCCN1)C(=O)O, which ED50 (Mus musculus) is on record?
Answer: The ED50 was over 50 ug mouse-1.

Question: And the Ki [1]?
Answer: Its Ki is over 1000 nM.

Question: With H-KPAIL-OH as the compound, how does the ED50 (Mus musculus) read?
Answer: Its ED50 is over 50 ug mouse-1.

Question: What about the Ki [1] of the same compound?
Answer: Its Ki is over 10000 nM.

Question: Which ED50 (Mus musculus) does the source give for CC[C@H](C)[C@H](NC(=O)[C@H](Cc1ccc(O)cc1)NC(=O)[C@@H]1CCCN1)C(=O)N[C@@H](CC(C)C)C(=O)O (H-PYIL-OH) here?
Answer: The ED50 was over 50 ug mouse-1.

Question: And the Ki [1]?
Answer: Its Ki is over 1000 nM.

Question: What does the source list for CC[C@H](C)[C@H](N)C(=O)N[C@@H](CC(C)C)C(=O)O (H-Ile-Leu-OH)?
Answer: ED50 (Mus musculus): >50 ug mouse-1; Ki [1]: > 1000 nM

Question: With H-KAYIL-OH as the compound, how does the ED50 (Mus musculus) read?
Answer: Its ED50 is over 50 ug mouse-1.

Question: And the Ki [1]?
Answer: Its Ki is over 10000 nM.

Question: Which results are given for H-KPYAL-OH?
Answer: ED50 (Mus musculus): >50 ug mouse-1; Ki [1]: 4200 nM

Question: For NC(N)=NCCC[C@H](N)C(=O)N1CCC[C@H]1C(=O)O (H-Arg-Pro-OH), which ED50 (Mus musculus) is on record?
Answer: The ED50 was over 50 ug mouse-1.

Question: What about the Ki [1] of the same compound?
Answer: Its Ki is over 10000 nM.

Question: With CC[C@H](C)[C@H](NC(=O)[C@@H](N)Cc1ccc(O)cc1)C(=O)N[C@@H](CC(C)C)C(=O)O as the compound, how does the ED50 (Mus musculus) read?
Answer: Its ED50 is over 50 ug mouse-1.

Question: And the Ki [1]?
Answer: The Ki was over 10000 nM.
